The text below walks through data of patent US8759364B2, “Methods of treating bone mass diseases” (The Trustees of Columbia University in the City of New York, priority 2008, dated 2014).

Data set [1] relates to peripheral serotonin production. Description: Pilot study of tryptophan hydroxylase inhibitors on peripheral serotonin production in ovariectomized mice, Example 12. It is filed as in vivo. The settings on record: for effect on serotonin levels: oral (gavage) twice a day, dose not given. On the procedure: 6-week old C57Bl/6 inbred female mice, weighing 12-14 g, were used in the experiments. Animals were housed under 12 h light/12 h dark conditions in a room with controlled temperature (22° C.) and humidity (60%). Mice had ad libitum access to food and water, and were used after a minimum of 4 days of acclimatization to the housing conditions. All experiments were conducted following Columbia University Guidelines for the Animal Use and Care of laboratory mice.
Animals were separated into different groups one day prior to the experiments. Mice were ovariectomized (OVX) under anaesthesia (Avertin). Compounds were fed orally (Gavage) twice a day at 1700 h and at 1100 h for the pilot study while for the long term study compounds were given at 1700 h once a day. […] This route creates two potential barriers for the compound to reach the brain. […] Control animals received the same volume of vehicle. Blood was collected through heart puncture on isofluorane-anaesthesized animals, allowed to clot for 5 minutes on ice and then serum was separated, snap chilled in liquid nitrogen and frozen at −80° C. till analyzed. Mice were observed daily for any physical or behavioral abnormality during the course of investigation.
• Group 1: Vehicle • Group 2: Compound 1 • Group 3: Compound 2 • Group 4: Compound 3 • Group 5: Compound 4 (LP-533401) Experiment II: Effect of Compounds 1 and 4 on Protection from OVX-Induced Bone Loss Protocol 1: Gavage Feeding of the Compounds Will be Started 1 Day after OVX for 6 Weeks • Group 1: Sham treatment • Group 2: OVX • Group 3: OVX+Compound 1 (250 mg/kg) • Group 4: OVX+Compound 1 (500 mg/kg) • Group 5: OVX+Compound 4 (250 mg/kg) Protocol 2: Gavage Feeding of the Compounds Will be Started 2 Weeks after OVX for 6 Weeks • Group 1: Sham treatment • Group 2: OVX • Group 3: OVX+Compound 1 (250 mg/kg) • Group 4: OVX+Compound 1 (500 mg/kg) • Group 5: OVX+Compound 4 (250 mg/kg) Protocol 3: Gavage Feeding of the Compounds Will be Started 4 Weeks after OVX for 6 Weeks • Group 1: Sham treatment • Group 2: OVX • Group 3: OVX+Compound 1 (250 mg/kg) • Group 4: OVX+Compound 1 (500 mg/kg) • […] Serotonin Measurement in Serum
The Serotonin ELISA kit obtained from the Fitzgerald company was used to measure derivatized serotonin from serum. Derivatization is part of the sample preparation. Serotonin present in the serum was first quantitatively acylated using the acylation reagent into N-Acylserotonin. The principle of the assay is based on competitive ELISA, wherein serotonin that is bound to the solid phase of the plate and the N-acylserotonin compete for the fixed number of antiserum binding sites. When the reaction is in equilibrium, free antigen and free antigen-antiserum complexes are removed by washing. The antibody bound to the solid phase serotonin is then detected by anti-rabbit/peroxidase. The substrate TMB/Peroxidase reaction is read at 450 nm. The amount of antibody bound to the solid phase serotonin is inversely proportional to the concentration of serotonin in the sample.
We used Catechol-3,6-bis methyleneiminodiacetic acid [(CBMIDA) Compound 1: basic structure is a EDTA-like compound and the catechol ring is at the center)] synthesized at the Columbia University Chemistry division and para-Chlorophenylalanine (pCPA) obtained from Sigma Aldrich Corp. for our experiments. Compounds were dissolved with twice molar solution of NaHCO3 in water and given to mice orally at 250 and 500 mg/kg/dose. Compounds 2 and 3 were dissolved in water.

The conditions of data set [2]: given orally, cited from earlier work.
Data set [3] relates to rat calvarial-derived osteoblasts. The settings on record: in vitro; cited from earlier work.
Data set [4] has as its system peripheral serotonin. Description: Effect of oral CBMIDA on peripheral serotonin production in mice (serum serotonin ELISA), Example 1. The settings on record: for reduction of peripheral serotonin measured in serum: 4 week old mice. It is filed as in vivo. The protocol: The ability of selective TPH1 inhibitor CBMIDA to reduce peripheral serotonin measured in serum was tested. Either 250 or 500 mg/kg doses of CBMIDA were administered orally twice in 20 hours to 4 week old mice, 4-5 mice per group. As a control, some mice were untreated and some received 250 mg/kg pCPA orally. […] CBMIDA has been reported to be an EDTA analog that increases osteoid volume in beagle dogs and induces proliferation of rat calvarial-derived osteoblasts in vitro (Xie, et al., Bioorganic & Medicinal Chemistry Letters 15 (2005) 3267-3270, incorporated herein by reference in its entirety).
One month old C57Bl/6 inbred male mice, weighing 15-16 g were used in the experiments. Animals were housed under 12 h light/12 h dark conditions in a room with controlled temperature (22° C.) and humidity (60%). Mice had ad libitum access to food and water, and were used after a minimum of 4 days of acclimatization to the housing conditions. All experiments were conducted following Columbia University Guidelines for the Animal Use and Care of laboratory mice.
Before the experiments, animals were separated into individual cages one day prior to the experiment. Compounds were fed orally (gavage) to the mouse, calculated according to the weight of the mouse, twice a day at 1700 h and at 1100 h. […] This route created two potential barriers for the compound to reach the brain. […] Control animals received the same volume of vehicle. Blood was collected through heart puncture on isofluorane-anaesthesized animals and allowed to clot for 5 minutes on ice. The serum was separated, snap chilled in liquid nitrogen and frozen at −80° C. till analyzed. Brainstems from all the animals were collected and processed for brain serotonin measurement through HPLC.
The Serotonin ELISA kit obtained from the Fitzgerald company was used to measure derivatized serotonin from serum. Derivatization is part of the sample preparation. Serotonin present in the serum was first quantitatively acylated into N-Acylserotonin using the acylation reagent. The principle of the assay is based on competitive ELISA, wherein serotonin that is bound to the solid phase of the plate and the N-acylserotonin compete for the fixed number of antiserum binding sites. When the reaction is in equilibrium, free antigen and free antigen-antiserum complexes are removed by washing.
The antibody bound to the solid phase serotonin is then detected using antirabbit/peroxidase. The substrate TMB/Peroxidase reaction is read at 450 nm. The amount of antibody bound to the solid phase serotonin is inversely proportional to the concentration of serotonin in the sample.
Catechol-3,6-bis methyleneiminodiacetic acid (CBMIDA) (basic structure is an EDTA-like compound and the catechol ring is at the centre) synthesized at the Columbia University Chemistry division, and para-chlorophenylalanine (pCPA) obtained from Sigma Aldrich Corp. were used. Each compound was dissolved with twice molar solution of NaHCO3 in water and given to mouse orally at 250 and 500 mg/kg/dose.

The test system of data set [5] is osteoid volume. The settings on record: beagle dogs; cited from earlier work.
Data set [6] concerns brain-derived serotonin. The settings on record: mice, twice per day over 3-4 days, about 30-90 mg/kg; cited from earlier work.
Data set [7] deals with Serotonin levels in the small intestine. The settings on record: mice, twice per day over 3-4 days, about 30-90 mg/kg; after six consecutive doses; cited from earlier work.
Data set [8] deals with primary osteoblasts. Description: Real-time PCR of cyclin and osteoblast-specific gene expression in primary osteoblasts treated with serotonin. The class given is cell-based, mouse. The settings on record: serotonin 50 to 100 μM, 24 hr, versus vehicle, FIG. 8B. On the procedure:
To test whether serotonin regulates the expression of cyclins in osteoblasts, a real-time PCR analysis of cyclin expression in primary osteoblasts treated with serotonin or vehicle was performed. […] In contrast, expression of Runx2, Osteocalcin and Type I collagen was not modified (FIG. 8B).
Calvaria osteoblasts were extracted by triple collagenase/trypsine digestion from 4 day-old CD1 pups and differentiated with ascorbic acid as previously described (Ducy et al., 2000, Cell 100:197-207).
(§1) Osteoblasts were treated in serum-free medium with vehicle or Serotonin (50 to 100 μM, Sigma) for 24 hr. Total RNA were extracted with Trizol (Invitrogen). cDNA were generated using the ABI Reverse transcriptase system and random hexanucleotide primers. Real-time PCR was performed using superarray primers on a Stratagene real time PCR cycler and Actin expression was used as endogenous control. Chromatin immunoprecipitation assays (ChIP) were performed by standard procedures using primary osteoblasts. Microarray analysis was performed as described previously (Glass et al., 2005, Dev. Cell 8:751-764).
A general note: Real-time PCR tracks product formation cycle by cycle.

The test system of data set [9] is CREB. Description: CREB phosphorylation (Western blot) and CREB binding to Cyclin D1 promoter (ChIP) in primary osteoblasts treated with serotonin. It is filed as cell-based, mouse. The protocol:
Decreased expression of Cyclin D1 is a major feature of both Lrp5 deficiency and serotonin treatment of osteoblasts (FIGS. 1 and 8). One transcription factor that is known to modulate the expression of cyclin genes and is expressed in osteoblasts is CREB (Fu et al., 2005, Cell 122:803-815). Therefore, whether serotonin could decrease CREB activity in these cells was tested. […] Furthermore, a CREB binding site in the Cyclin D1 mouse promoter was identified and it was shown using ChIP assays that serotonin decreased binding of CREB to this promoter (FIG. 9B). These two observations raise the hypothesis that CREB could be mediating serotonin action on osteoblasts.
as §1
Osteoblasts were treated in serum-free medium with vehicle or Serotonin (50 to 100 μM, Sigma) for 24 hr. […]
On the technique in general: Immunoblotting shows a protein as a band on a membrane.

In data set [10] the target is rb 5-HT1B receptors (Oryctolagus cuniculus, UniProt P49144). The settings on record: cited from earlier work.
rb 5-HT1B receptors, sequence (P49144 whole entry): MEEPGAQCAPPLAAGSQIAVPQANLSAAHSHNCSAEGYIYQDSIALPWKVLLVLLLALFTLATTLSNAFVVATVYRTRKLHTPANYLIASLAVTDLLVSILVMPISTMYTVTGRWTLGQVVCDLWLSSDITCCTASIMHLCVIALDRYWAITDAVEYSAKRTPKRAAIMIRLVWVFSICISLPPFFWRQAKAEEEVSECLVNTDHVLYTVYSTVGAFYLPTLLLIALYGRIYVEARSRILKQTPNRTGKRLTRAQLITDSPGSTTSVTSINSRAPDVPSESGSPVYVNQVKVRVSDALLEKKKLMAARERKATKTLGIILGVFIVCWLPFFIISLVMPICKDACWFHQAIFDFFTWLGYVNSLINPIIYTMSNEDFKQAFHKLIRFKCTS

Where “and” joins values, the source holds several entries; their conditions need not be identical. Equal values may be shown once. Read-outs that look alike come from different tables or passages of the source.

With `CN1CCc2cccc3c2[C@H]1Cc1cc(CN(CC(=O)O)CC(=O)O)c(O)c(O)c1-3` [Compound 3], the “effect on serotonin levels” value in data set [1] (pilot study) was “decreased the serotonin levels dramatically”. In addition, the “toxicity to the animals (looked very lethargic and sick)” value in data set [1] (oral, pilot study) is listed as “toxic”.
As for `O=C(O)CN(CC(=O)O)Cc1ccc(CN(CC(=O)O)CC(=O)O)c(O)c1O` [CBMIDA, Catechol-3,6-bis methyleneiminodiacetic acid], the “decrease of serotonin serum levels” value in data set [1] (250 mg/kg, oral, compared with 500 mg/kg) is given as “lesser extent”; in data set [4] (250 mg/kg, oral, compared with 500 mg/kg, FIG. 11), “lesser extent”. In addition, the “serotonin serum levels decreased to % below normal” value in data set [1] (500 mg/kg twice daily, oral, FIG. 15) is recorded as 80%; in data set [4] (500 mg/kg twice daily, oral, FIG. 11) it was 80%. Also, the “dose response of serotonin levels” value in [1] (different doses compared to control animals, FIG. 15) is reported as “dose response curve”. Besides, the “share of the oral amount transported into the circulation (blood)” value is 3-5% and 5-10% in [2]; 5-10% in [2] (listed as Compound 1). Also, the proliferation of osteoblasts result in data set [3] is listed as “induces”. The “reduction of peripheral serotonin measured in serum” value in [4] (250 mg/kg orally twice in 20 hours) is recorded as about 45%; in data set [4] (500 mg/kg orally twice in 20 hours), “about 80%”. For the same compound, the “dose response of serum serotonin reduction” value in data set [4] (250 and 500 mg/kg versus control animals) is “dose response curve”. For the same compound, the “peripheral serotonin upon oral feeding” value in data set [4] (FIG. 11 legend) was “reduces”. The osteoid volume result in [5] is “increases”.
For `CCOC(=O)[C@@H](N)Cc1ccc(-c2cc(OC(c3ccc(-c4cccc(F)c4)cc3)C(F)(F)F)nc(N)n2)cc1` (stereo partly drawn) [LP-615819], the brain-derived serotonin result in [6] is “unchanged”. In [7], the “Serotonin levels in the small intestine” value is reported as “significantly lowered”.
Take `NCCc1c[nH]c2ccc(O)cc12` [serotonin, 5-hydroxytryptamine]: in data set [8], the “expression of Cyclin D1 and D2” value is given as “decreased”; the “expression of Runx2, Osteocalcin and Type I collagen” value was “not modified”. For the same compound, the CREB phosphorylation entry in data set [9] (FIG. 9A) is on record as “significantly decreased”. In [9] (FIG. 9B), the “binding of CREB to the Cyclin D1 promoter (ChIP)” value is “decreased”.
With `NC(=O)CN(CC(=O)O)Cc1ccc(CN(CC(N)=O)CC(=O)O)c(O)c1O` [Compound 2], the “effect on serotonin levels” value in data set [1] (pilot study) was “minimal effect”.
Take `CSc1ccc2c(c1)C(N1CCN(C)CC1)Cc1ccccc1S2` (stereo not drawn) [methiothepin]: in data set [10], the behaviour as antagonist result was “as silent, competitive”.
`O=C(c1ccc(F)cc1)C1CCN(CCn2c(=O)[nH]c3ccccc3c2=O)CC1` [ketanserin]: the behaviour as antagonist entry in data set [10] is “as silent, competitive”.
